The values that follow come from US20190241535A1, “3-SUBSTITUTED CARBONYL-NAPHTHO[2,3-B]FURANE DERIVATIVE OR PHARMACEUTICALLY ACCEPTABLE SALT THEREOF” (Boston Biomedical, Inc., priority 2014, published 2019).

In brackets after ≈: the same amount, converted by molar mass. Where two headings read alike, the source gives them in different places.

Data set [1] concerns HCT-116 cell. In words: Test 1: growth inhibition in cancer cell (Bulk IC50). The class given is cell-based. To be noted: Homo sapiens, 96 h, adherent culture, incubated 4 days, CellTiter-Glo. The method, then: (§1) HCT-116 cell, HT-29 cell, and FaDu cell were obtained from the American Type Culture Collection (ATCC). HCT-116 cell and HT-29 cell were cultivated at 37° C. in the presence of 5% CO2 using McCoy's 5a medium containing 10% fetal bovine serum (FBS), and 1% penicillin/streptomycin; and FaDu cell was cultivated at 37° C. in the presence of 5% CO2 using MEM containing 10% FBS, 1% non-essential amino acid, 1% sodium pyruvate, and 1% penicillin/streptomycin. Each cell was seeded on μClear-plate black 384 wells (Greiner bio-one Cat. No. 781091) in 300-600 cells/well, and then each test sample was added thereto to adjust the final concentration thereof in DMSO to 0.1% and the test wells were incubated for 4 days. And then, the viable cell count of each sample was measured using CellTiter-Glo® Luminescent Cell Viability Assay (Promega), and the concentration to inhibit the cell growth in each test sample by 50% was calculated (Bulk IC50 Value; μM).
For orientation: ATP-based viability assays read luminescence as a measure of living cells.

Data set [2] has as its system HT-29 cell. The data set is described as above. To be noted: Homo sapiens, 96 h, adherent culture, incubated 4 days, CellTiter-Glo. Format: cell-based. The method, then:
as §1

In data set [3] the test system is FaDu cell. The data set is described as above. Format: cell-based. Particulars: Homo sapiens, 96 h, adherent culture, incubated 4 days, CellTiter-Glo. The method, then:
as §1

For data set [4], the system named is HCT-116 cell. In words: Test 2: inhibition of forming cancer cell sphere (Sphere IC50). Format: cell-based. Particulars: Homo sapiens, 96 h, ultra-low attachment plate, serum-free sphere medium, 4 days, CellTiter-Glo. On the procedure: (§2) HCT-116 cell, HT-29 cell, and FaDu cell were obtained from the American Type Culture Collection (ATCC). HCT-116 cell and HT-29 cell were cultivated at 37° C. in the presence of 5% CO2 using McCoy's 5a medium containing 10% fetal bovine serum (FBS), and 1% penicillin/streptomycin; and FaDu cell was cultivated at 37° C. in the presence of 5% CO2 using MEM containing 10% FBS, 1% non-essential amino acid, 1% sodium pyruvate, and 1% penicillin/streptomycin. Each of HCT-116 cell, HT-29 cell, and FaDu cell was seeded on 384 Wells Black Clear Bottom Ultra-Low Attachment Microplate (Corning Cat. No. 3827) in 350-800 cells/well, with DMEM/F12 medium containing 2% B27 supplement (GIBCO), 20 ng/mL epidermal growth factor (EGF) (peprotech), 10 ng/mL basic fibroblast growth factor (bFGF) (peprotech), 5 μg/mL insulin (Sigma), and 1% penicillin/streptomycin. Each test sample was added thereto to adjust the final concentration thereof in DMSO to 0.1% and the test wells were incubated for 4 days. And then, the viable cell count of each sample was measured using CellTiter-Glo® Luminescent Cell Viability Assay (Promega), and the concentration to inhibit the cell growth in each test sample by 50% was calculated (Sphere IC50 Value;μM).

For data set [5], the system named is HT-29 cell. Described as above. The class given is cell-based. To be noted: Homo sapiens, 96 h, ultra-low attachment plate, serum-free sphere medium, 4 days, CellTiter-Glo. The method, then: as §2
Data set [6] has as its system FaDu cell. The description is as above. The class given is cell-based. To be noted: Homo sapiens, 96 h, ultra-low attachment plate, serum-free sphere medium, 4 days, CellTiter-Glo. On the procedure: as §2
A short description of a further data set: Test 3: solubility test. The class given is physicochemical. Particulars: kinetic from dmso stock, 1% DMSO, HPLC. The method, then: Each 15 μL of each test sample (10 mM DMSO solution) was dispensed into 4 Utubes on a 96 well rack. Then, each sample was evaporated to dryness with a rotary evaporator. 3 μL of DMSO was added to each dried sample to be re-dissolved. And, 300 μL of pH 7.4 buffer was added to the 2 wells and 300 μL of pH 1.2 buffer was added to the other 2 wells. After shaking each sample solution, the samples were still stood. Then, each sample solution was centrifuged to remove insoluble matter, and 100 μL of the supernatant was picked up on a 96 well plate. Separately, 2 μL of each test sample (10 mM DMSO solution) was dispensed on a 96 well plate, and diluted with 198 μL of 50% acetonitrile to prepare each 100 μM standard solution. Further, the 100 μM standard solution was diluted with 50% acetonitrile to prepare each 10 μM standard solution. The above test samples for the solubility test and the two kinds of the standard samples were analyzed with a HPLC. The solubility of each test sample was calculated as an area ratio per the standard solutions.

A short description of data set [7]: Test 4: concentration of the test compounds in plasma. Format: in vivo. Particulars: mouse, po, 25 mg/kg, 25 mg/kg po. On the procedure: Administration method: The test compound scaled to a given weight was suspended in 0.5% methylcellulose to prepare an administration solution. A mouse was weighed, and the administration solution was orally administered to the mouse depending on its weight.
Blood sampling method: EDAT-2K was added to a blood collection tube, into which the blood of the mouse was sampled. The sampled blood was centrifuged to give plasma.
Preparation of standard solution: The test compound scaled to 1 mg was dissolved in 10 mL of MeOH in a volumetric flask to prepare a 100 μg/mL standard solution.
Measure of the concentration in plasma: The 100 μg/mL standard solution was diluted with MeOH to prepare a sample for calibration curve which has the desired concentration. To 50 μL of the sample for calibration curve was added 50 μL of the blank plasma to prepare a sample for plasma calibration curve. To 50 μL of the plasma sample treated with the test compound was added 50 μL of MeOH to prepare a sample for analyzing plasma. To each 100 μL of the sample for plasma calibration curve and the sample for analyzing plasma was added 150 μL of MeOH containing an internal standard respectively. The internal standard used herein was bezafibrate, the concentration of which was 200 nM. Each 5 μL of the samples was analyzed with an LC-MS. The calibration curve was prepared based on the peak ratio of MS peak area of the test sample per that of the internal standard, and the concentration of the sample for plasma calibration curve. The concentration of the test compound in each sample was calculated based on the peak ratio of each sample, and the calibration curve.

The mark [8] stands for this setting: animal 1, read-out: Concentration in plasma, animal 1.
Setting [9] is: animal 2, read-out: Concentration in plasma, animal 2.
The mark [10] stands for this setting: animal 3, read-out: Concentration in plasma, animal 3.
Setting [11] is: mean of 3, read-out: Concentration in plasma, mean.

As usually defined, the IC50 is the point on the concentration scale where inhibition reaches its midpoint. By solubility is commonly meant the dissolved amount per volume that the medium holds. `CN1CCN(C(=O)c2c(C(F)(F)F)oc3c2C(=O)c2ccccc2C3=O)CC1` [Example 8, 3-(4-Methylpiperazine-1-carbonyl)-2-(trifluoromethyl)naphtho[2,3-b]furan-4,9-dione]: the IC50 came out at 530 nM in the data set on HCT-116 cell [1]; 640 nM with HT-29 cell [2]; 500 nM in the data set on FaDu cell [3]; 530 nM in the data set on HCT-116 cell [4]; 640 nM with HT-29 cell [5]; 500 nM with FaDu cell [6]. Besides, the solubility in the data set “Test 3: solubility test” (aqueous buffer, pH 7.4 buffer, read-out: Solubility pH 7.4) was 138 µg/mL (≈ 352 µM); in “Test 3: solubility test” (simulated gastric fluid, pH 1.2 buffer, read-out: Solubility pH 1.2), 160 µg/mL (≈ 408 µM). In addition, the concentration at 2 hr came to 508 ng/mL in data set [7] (setting [8]), 473 ng/mL in data set [7] (setting [9]), 384 ng/mL in data set [7] (setting [10]) and 455 ng/mL in data set [7] (setting [11]). The concentration at 6 hr turned out to be 351 ng/mL in data set [7] (setting [8]), 2800 ng/mL in data set [7] (setting [9]), 334 ng/mL in data set [7] (setting [10]) and 1160 ng/mL in data set [7] (setting [11]).
